Test results as given in patent US20180057505A1, “BICYCLIC HETEROARYL COMPOUNDS USEFUL AS INHIBITORS OF THE PAR-2 SIGNALING PATHWAY” (VERTEX PHARMACEUTICALS INCORPORATED, priority 2015, published 2018).
pIC50: −log10 of the molar value.

Tests used:
Type in all cases: cell-based
[1] = molecular target: T1, PAR2 (HT-29 cells) (Homo sapiens, UniProt P55085); assay: Ca FLIPR TETRA assay, ANTAGONIST mode, activator 8 μM SLIGKV; settings: HT-29 cells, activator 8 μM SLIGKV; maximal antagonist concentration per Method (A: 0.1, 1 or 2 μM; B: 50 μM)
T1 construct: host or cells: HT-29
T1 sequence (P55085 26-397): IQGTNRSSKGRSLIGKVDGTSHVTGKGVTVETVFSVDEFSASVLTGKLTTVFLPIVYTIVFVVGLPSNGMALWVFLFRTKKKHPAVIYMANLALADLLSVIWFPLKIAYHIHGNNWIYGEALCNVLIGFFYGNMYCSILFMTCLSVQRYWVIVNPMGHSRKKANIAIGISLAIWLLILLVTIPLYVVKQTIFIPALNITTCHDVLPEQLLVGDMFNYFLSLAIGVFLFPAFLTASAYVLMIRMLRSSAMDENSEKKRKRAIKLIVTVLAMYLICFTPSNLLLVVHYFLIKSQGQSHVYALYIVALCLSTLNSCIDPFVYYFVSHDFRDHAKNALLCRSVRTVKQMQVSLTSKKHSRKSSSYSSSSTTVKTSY
Summary of the method: (§1)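 Compounds are added to calcium 5-loaded HT-29 cells, read once for intrinsic Ca2+ activation, then incubated 30 min at room temperature. The same wells are then stimulated with a fixed final activator level and the Ca2+ response recorded on FLIPR Tetra.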

[2] = molecular target: T1, PAR2 (HT-29 cells); assay: Ca FLIPR TETRA assay, ANTAGONIST mode, activator 3.1 U/mL trypsin; settings: HT-29 cells, activator 3.1 U/mL trypsin; maximal antagonist concentration per Method (A: 0.1, 1 or 2 μM; B: 50 μM)
Summary of the method: as §1

[3] = test system: Thrombin-stimulated Ca2+ response in HT-29 cells; assay: Ca FLIPR TETRA assay, ANTAGONIST mode, activator 1 U/mL Thrombin; settings: Homo sapiens; HT-29 cells, activator 1 U/mL Thrombin
Summary of the method: as §1

[4] = test system: UTP-stimulated Ca2+ response in HT-29 cells; assay: Ca FLIPR TETRA assay, ANTAGONIST mode, activator 0.6 μM UTP; settings: Homo sapiens; HT-29 cells, activator 0.6 μM UTP
Summary of the method: as §1

CC(C)(C)c1cc(-c2ccc(Cl)cc2)nc2cc(C(=O)N3CCN(C(=O)c4ccn[nH]4)CC3(C)C)oc12 [Example I-168]
pIC50 [1]: 8.55
pIC50 [2]: 8.52
pIC50 [3]: < 6.00
pIC50 [4]: < 6.00

CC(C)(C)c1cc(-c2ccc(Cl)cc2)nc2cc(C(=O)N3CCN(C(=O)c4nnc[nH]4)CC3(C)C)oc12 [Example I-169]
pIC50 [1]: 9.05
pIC50 [2]: 8.62
pIC50 [3]: < 6.00
pIC50 [4]: < 6.00

Cc1ncc(C(=O)N2CCN(C(=O)c3cc4nc(-c5ccc(C(F)(F)F)cc5)cc(C(C)(C)C)c4o3)C(C)(C)C2)[nH]1 [Example I-170]
pIC50 [1]: 8.22
pIC50 [2]: 8.09
pIC50 [3]: < 6.00
pIC50 [4]: < 6.00

Cc1cc(C(=O)N2CCN(C(=O)c3cc4nc(-c5ccc(C(F)(F)F)cc5)cc(C(C)(C)C)c4o3)C(C)(C)C2)[nH]n1 [Example I-171]
pIC50 [1]: 8.25
pIC50 [2]: 8.18
pIC50 [3]: < 6.00
pIC50 [4]: < 6.00

CC(C)(C)c1cc(-c2ccc(Cl)c(F)c2)nc2cc(C(=O)N3CCNC(=O)C3(C)C)oc12 [Example I-172, 4-[7-tert-butyl-5-(4-chloro-3-fluoro-phenyl)furo[3,2-b]pyridine-2-carbonyl]-3,3-dimethyl-piperazin-2-one]
pIC50 [1]: 8.00
pIC50 [2]: 7.92
pIC50 [3]: < 6.00
pIC50 [4]: < 6.00

CC(C)(C)c1cc(-c2ccc(C(F)(F)F)cc2)nc2cc(C(=O)N3CCN(C(=O)c4nnc[nH]4)CC3(C)C)oc12 [Example I-173]
pIC50 [1]: 8.32
pIC50 [2]: 8.12
pIC50 [3]: < 6.00
pIC50 [4]: < 6.00

Cc1nnc(C(=O)N2CCN(C(=O)c3cc4nc(-c5ccc(C(F)(F)F)cc5)cc(C(C)(C)C)c4o3)C(C)(C)C2)[nH]1 [Example I-174]
pIC50 [1]: 8.72
pIC50 [2]: 8.49
pIC50 [3]: < 6.00
pIC50 [4]: < 6.00

Cc1nnc(C(=O)N2CCN(C(=O)c3cc4nc(-c5ccc(C(F)(F)F)cc5)cc(C(C)(C)C)c4o3)C(C)(C)C2)o1 [Example I-175]
pIC50 [1]: 7.80
pIC50 [2]: 7.80
pIC50 [3]: < 6.00
pIC50 [4]: < 6.00

Cc1cc(C(=O)N2CCN(C(=O)c3cc4nc(-c5ccc(Cl)cc5)cc(C(C)(C)C)c4o3)C(C)(C)C2)[nH]n1 [Example I-177]
pIC50 [1]: 8.85
pIC50 [2]: 8.70
pIC50 [3]: < 6.00
pIC50 [4]: < 6.00

Cc1nnc(C(=O)N2CCN(C(=O)c3cc4nc(-c5ccc(Cl)cc5)cc(C(C)(C)C)c4o3)C(C)(C)C2)[nH]1 [Example I-178]
pIC50 [1]: 9.15
pIC50 [2]: 9.00
pIC50 [3]: < 6.00
pIC50 [4]: < 6.00

Cc1nnc(C(=O)N2CCN(C(=O)c3cc4nc(-c5ccc(Cl)cc5)cc(C(C)(C)C)c4o3)C(C)(C)C2)o1 [Example I-179]
pIC50 [1]: 8.55
pIC50 [2]: 8.26
pIC50 [3]: < 6.00
pIC50 [4]: < 6.00

Cc1ncc(C(=O)N2CCN(C(=O)c3cc4nc(-c5ccc(Cl)cc5)cc(C(C)(C)C)c4o3)C(C)(C)C2)[nH]1 [Example I-180]
pIC50 [1]: 8.96
pIC50 [2]: 8.64
pIC50 [3]: < 6.00
pIC50 [4]: < 6.00

CC(C)(C)c1cc(-c2ccc(Cl)c(F)c2)nc2cc(C(=O)N3CCN(C(=O)c4ncn[nH]4)CC3(C)C)oc12 [Example I-181]
pIC50 [1]: 9.05
pIC50 [2]: 8.80
pIC50 [3]: < 6.00
pIC50 [4]: < 6.00

CC(C)(C)c1cc(-c2ccc(F)cc2)nc2cc(C(=O)N3CCN(c4cn[nH]c4)C(=O)C3(C)C)oc12 [Example I-182]
pIC50 [1]: 8.96
pIC50 [2]: 8.24
pIC50 [3]: < 6.00
pIC50 [4]: < 6.00

Cc1nnc(C(=O)N2CCN(C(=O)c3cc4nc(-c5ccc(F)cc5)cc(C(C)(C)C)c4o3)C(C)(C)C2)o1 [Example I-183]
pIC50 [1]: 8.59
pIC50 [2]: 8.04
pIC50 [3]: < 6.00
pIC50 [4]: < 6.00

CC(C)(C)c1cc(-c2ccc(F)cc2)nc2cc(C(=O)N3CCN(C(=O)c4ncccn4)CC3(C)C)oc12 [Example I-184]
pIC50 [1]: 8.24
pIC50 [2]: 7.92
pIC50 [3]: < 6.00
pIC50 [4]: < 6.00

CC(C)(C)c1cc(-c2ccc(F)cc2)nc2cc(C(=O)N3CCN(C(=O)c4ccccn4)CC3(C)C)oc12 [Example I-185]
pIC50 [1]: 8.92
pIC50 [2]: 8.29
pIC50 [3]: < 6.00
pIC50 [4]: < 6.00

Cc1cc(C(=O)N2CCN(C(=O)c3cc4nc(-c5ccc(F)cc5)cc(C(C)(C)C)c4o3)C(C)(C)C2)no1 [Example I-186]
pIC50 [1]: 9.15
pIC50 [2]: 9.00
pIC50 [3]: < 6.00
pIC50 [4]: < 6.00
